Laboratory results taken from PubChem BioAssay AID192 (DTP/NCI, 2004).
Where “and” joins values, the source holds several entries; their conditions need not be identical. Identical values can stand only once. Inconclusive results and toxic doses are left out. How the source made its calls: active means survival T/C of 150% or more; inactive means T/C below 125% in these data.

Test system: BDF1 mice, B16 melanoma ip, median survival T/C
Assay: NCI In Vivo Anticancer Drug Screen. Data for tumor model B16 Melanoma (intraperitoneal) in B6D2F1 (BDF1) mice
Conditions: endpoint: median survival time, higher = longer survival
How it was run: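 Values are ratios of treated (T) to vehicle-control (C) measurements of survival or tumor size in tumor-bearing mice.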

[1] = dose: 50.0 mg/kg/injection, schedule: Q04DX003 (ip), vehicle: saline with Tween-80
[2] = dose: 100.0 mg/kg/injection, schedule: Q01DX009 (ip), vehicle: saline
[3] = dose: 200.0 mg/kg/injection, schedule: Q01DX009 (ip), vehicle: saline
[4] = dose: 200.0 mg/kg/injection, schedule: Q04DX003 (ip), vehicle: saline with Tween-80
[5] = dose: 100.0 mg/kg/injection, schedule: Q01DX009 (ip), vehicle: Klucel (hydroxypropylcellulose) (HPC)

Measured: T/C

CN(C)/N=N/c1nc[nH]c1C(N)=O
inactive: dose: 6.25 mg/kg/injection, schedule: Q01DX009 (ip), vehicle: saline 110 % of control | dose: 6.25 mg/kg/injection, schedule: Q01DX009 (ip), vehicle: steriod suspending solution 105 % of control | dose: 12.5 mg/kg/injection, schedule: Q01DX009 (ip), vehicle: carboxymethylcellulose (CMC) 121 % of control | dose: 12.5 mg/kg/injection, schedule: Q01DX009 (ip), vehicle: saline 115 % of control | dose: 12.5 mg/kg/injection, schedule: Q01DX009 (ip), vehicle: steriod suspending solution 107 % of control | dose: 13.0 mg/kg/injection, schedule: Q01DX009 (ip), vehicle: saline with Tween-80 114 % of control | dose: 18.75 mg/kg/injection, schedule: Q01DX009 (ip), vehicle: Klucel (hydroxypropylcellulose) (HPC) 101 % of control | dose: 18.8 mg/kg/injection, schedule: Q01DX009 (ip), vehicle: saline 105 % of control | dose: 18.8 mg/kg/injection, schedule: Q04DX005 (ip), vehicle: saline 94 % of control | dose: 25.0 mg/kg/injection, schedule: Q01DX009 (ip), vehicle: carboxymethylcellulose (CMC) 115 % of control | dose: 25.0 mg/kg/injection, schedule: Q01DX009 (ip), vehicle: distilled water + Tween-80 117 % of control | dose: 25.0 mg/kg/injection, schedule: Q01DX009 (ip), vehicle: saline with Tween-80 107 % of control | dose: 25.0 mg/kg/injection, schedule: Q01DX009 (ip), vehicle: saline 102 % of control and 110 % of control and 114 % of control | dose: 25.0 mg/kg/injection, schedule: Q01DX009 (ip), vehicle: steriod suspending solution 115 % of control | dose: 25.0 mg/kg/injection, schedule: Q01DX017 (ip), vehicle: saline 116 % of control | dose: 25.0 mg/kg/injection, schedule: Q04DX003 (ip), vehicle: saline with Tween-80 104 % of control and 105 % of control and 115 % of control | dose: 27.5 mg/kg/injection, schedule: Q01DX009 (ip), vehicle: saline 100 % of control | dose: 37.0 mg/kg/injection, schedule: Q01DX009 (ip), vehicle: saline with Tween-80 112 % of control | dose: 37.5 mg/kg/injection, schedule: Q04DX003 (ip), vehicle: saline 100 % of control | dose: 37.5 mg/kg/injection, schedule: Q04DX005 (ip), vehicle: saline 97 % of control | dose: 48.0 mg/kg/injection, schedule: Q01DX005 (ip), vehicle: Klucel (hydroxypropylcellulose) (HPC) 99 % of control | dose: 50.0 mg/kg/injection, schedule: Q01DX009 (ip), vehicle: carboxymethylcellulose (CMC) 110 % of control | dose: 50.0 mg/kg/injection, schedule: Q01DX009 (ip), vehicle: saline with Tween-80 124 % of control | dose: 50.0 mg/kg/injection, schedule: Q01DX009 (ip), vehicle: saline 105 % of control and 114 % of control and 121 % of control | dose: 50.0 mg/kg/injection, schedule: Q01DX009 (ip), vehicle: steriod suspending solution 115 % of control | dose: 50.0 mg/kg/injection, schedule: Q01DX017 (ip), vehicle: saline 114 % of control | [1] 115 % of control | dose: 72.0 mg/kg/injection, schedule: Q01DX005 (ip), vehicle: Klucel (hydroxypropylcellulose) (HPC) 101 % of control | dose: 75.0 mg/kg/injection, schedule: Q01DX001 (ip), vehicle: saline 114 % of control | dose: 75.0 mg/kg/injection, schedule: Q04DX003 (ip), vehicle: saline 107 % of control | dose: 75.0 mg/kg/injection, schedule: Q04DX005 (ip), vehicle: saline 107 % of control | dose: 100.0 mg/kg/injection, schedule: Q01DX009 (ip), vehicle: carboxymethylcellulose (CMC) 105 % of control | dose: 100.0 mg/kg/injection, schedule: Q01DX009 (ip), vehicle: distilled water + Tween-80 124 % of control | dose: 100.0 mg/kg/injection, schedule: Q01DX009 (ip), vehicle: saline with Tween-80 123 % of control | [2] 110 % of control (2×) and 119 % of control | dose: 100.0 mg/kg/injection, schedule: Q01DX009 (ip), vehicle: steriod suspending solution 115 % of control | dose: 100.0 mg/kg/injection, schedule: Q01DX017 (ip), vehicle: saline 123 % of control | dose: 108.0 mg/kg/injection, schedule: Q01DX005 (ip), vehicle: Klucel (hydroxypropylcellulose) (HPC) 98 % of control | dose: 130.0 mg/kg/injection, schedule: Q01DX009 (ip), vehicle: DMSO 105 % of control | dose: 148.0 mg/kg/injection, schedule: Q04DX003 (ip), vehicle: saline with Tween-80 110 % of control | dose: 150.0 mg/kg/injection, schedule: Q01DX001 (ip), vehicle: saline 112 % of control | dose: 150.0 mg/kg/injection, schedule: Q04DX003 (ip), vehicle: saline 112 % of control | dose: 160.0 mg/kg/injection, schedule: Q01DX005 (ip), vehicle: Klucel (hydroxypropylcellulose) (HPC) 101 % of control | dose: 166.7 mg/kg/injection, schedule: Q01DX009 (ip), vehicle: saline with Tween-80 77 % of control | dose: 200.0 mg/kg/injection, schedule: Q01DX009 (ip), vehicle: distilled water + Tween-80 121 % of control | [3] 117 % of control and 118 % of control | [4] 109 % of control | dose: 216.0 mg/kg/injection, schedule: Q01DX009 (ip), vehicle: DMSO 109 % of control | dose: 222.0 mg/kg/injection, schedule: Q04DX003 (ip), vehicle: saline with Tween-80 115 % of control | dose: 240.0 mg/kg/injection, schedule: Q01DX005 (ip), vehicle: Klucel (hydroxypropylcellulose) (HPC) 99 % of control | dose: 277.8 mg/kg/injection, schedule: Q01DX009 (ip), vehicle: saline with Tween-80 53 % of control | dose: 300.0 mg/kg/injection, schedule: Q01DX001 (ip), vehicle: saline 102 % of control | dose: 300.0 mg/kg/injection, schedule: Q04DX003 (ip), vehicle: saline 114 % of control | dose: 300.0 mg/kg/injection, schedule: Q04DX005 (ip), vehicle: saline 115 % of control | dose: 333.0 mg/kg/injection, schedule: Q04DX003 (ip), vehicle: saline with Tween-80 124 % of control | dose: 500.0 mg/kg/injection, schedule: Q04DX003 (ip), vehicle: saline with Tween-80 114 % of control | dose: 600.0 mg/kg/injection, schedule: Q01DX001 (ip), vehicle: saline 107 % of control | dose: 600.0 mg/kg/injection, schedule: Q04DX003 (ip), vehicle: saline 95 % of control | dose: 750.0 mg/kg/injection, schedule: Q04DX003 (ip), vehicle: saline with Tween-80 124 % of control | dose: 800.0 mg/kg/injection, schedule: Q04DX003 (ip), vehicle: saline with Tween-80 45 % of control | dose: 1200.0 mg/kg/injection, schedule: Q01DX001 (ip), vehicle: saline 117 % of control

C=CCNC(=S)Nc1cc(Cl)ccc1OC
inactive: [5] 93 % of control | dose: 200.0 mg/kg/injection, schedule: Q01DX009 (ip), vehicle: Klucel (hydroxypropylcellulose) (HPC) 93 % of control | dose: 400.0 mg/kg/injection, schedule: Q01DX009 (ip), vehicle: Klucel (hydroxypropylcellulose) (HPC) 93 % of control

O=C(O)c1ccc(O)c([N+](=O)[O-])c1
inactive: [2] 115 % of control | [3] 87 % of control

COc1ccc(NC(=O)Oc2ccc(Cl)c(C)c2)cc1
inactive: dose: 200.0 mg/kg/injection, schedule: Q01DX009 (ip), vehicle: saline with Tween-80 116 % of control | dose: 400.0 mg/kg/injection, schedule: Q01DX009 (ip), vehicle: saline with Tween-80 105 % of control

C/C=C1/C[C@@H](C)[C@@](C)(O)C(=O)OCC2=CC[N+]3([O-])CC[C@@H](OC1=O)[C@@H]23 (stereo partly specified)
inactive: dose: 10.0 mg/kg/injection, schedule: Q01DX009 (ip), vehicle: saline 102 % of control | dose: 20.0 mg/kg/injection, schedule: Q01DX009 (ip), vehicle: saline 106 % of control | dose: 40.0 mg/kg/injection, schedule: Q01DX009 (ip), vehicle: saline 113 % of control | dose: 80.0 mg/kg/injection, schedule: Q01DX009 (ip), vehicle: saline 102 % of control

O=[N+]([O-])OCc1c(Cl)nc(Cl)c(Cl)c1Cl
inactive: dose: 15.0 mg/kg/injection, schedule: Q01DX009 (ip), vehicle: Klucel (hydroxypropylcellulose) (HPC) 111 % of control | dose: 30.0 mg/kg/injection, schedule: Q01DX009 (ip), vehicle: Klucel (hydroxypropylcellulose) (HPC) 108 % of control | dose: 60.0 mg/kg/injection, schedule: Q01DX009 (ip), vehicle: Klucel (hydroxypropylcellulose) (HPC) 88 % of control

c1cc2cc3c(cc2cc1CC1NCCc2cc4c(cc21)OCO4)OCO3 (stereo unspecified)
inactive: dose: 25.0 mg/kg/injection, schedule: Q01DX009 (ip), vehicle: Klucel (hydroxypropylcellulose) (HPC) 97 % of control | dose: 50.0 mg/kg/injection, schedule: Q01DX009 (ip), vehicle: Klucel (hydroxypropylcellulose) (HPC) 89 % of control | [5] 94 % of control

O/N=C\c1ccc(/C=N/O)cc1
inactive: [1] 119 % of control | dose: 100.0 mg/kg/injection, schedule: Q04DX003 (ip), vehicle: saline with Tween-80 119 % of control | [4] 111 % of control
